Assay results from patent US10294202B2, “Pyrrolidinones as herbicides” (FMC Corporation, priority 2013, dated 2019).

Tests used:
[1] = test system: ragweed; assay: Test E preemergence herbicide test; format: in vivo, Ambrosia elatior; set-up: key: 0 = no effect, 100 = complete control
Text: (§1) Seeds of plant species selected from corn (Zea mays), soybean (Glycine max), velvetleaf (Abutilon theophrasti), lambsquarters (Chenopodium album), wild poinsettia (Euphorbia heterophylla), pigweed, palmer (palmer pigweed, Amaranthus palmeri), waterhemp (common waterhemp, Amaranthus rudis), surinam grass (Brachiaria decumbens), crabgrass, large (large crabgrass, Digitaria sanguinalis), crabgrass, Brazil (Brazilian crabgrass, Digitaria horizontalis), panicum, fall (fall panicum, Panicum dichotomiflorum), foxtail, giant (giant foxtail, Setaria faberii), foxtail, green (green foxtail, Setaria viridis), goosegrass (Eleusine indica), johnsongrass (Sorghum halepense), ragweed (common ragweed, Ambrosia elatior), barnyardgrass (Echinochloa crus-galli), sandbur (southern sandbur, Cenchrus echinatus), arrowleaf […] rhombifolia), ryegrass, Italian (Italian ryegrass, Lolium multiflorum), dayflower, VA (Virginia dayflower, Commelina virginica), field bindweed (Convolvulus arvensis), morningglory (Ipomoea coccinea), nightshade (eastern black nightshade, Solanum ptycanthum), kochia (Kochia scoparia), nutsedge, yellow (yellow nutsedge, Cyperus esculentus), cocklebur (common cocklebur, Xanthium strumarium), smartweed (ladysthumb smartweed, Polygonum Persicaria) and beggarticks (hairy beggarticks, Bidens pilosa), were planted into a silt loam soil and treated preemergence with test chemicals formulated in a non-phytotoxic solvent mixture which included a surfactant. Treated plants and controls were maintained in a greenhouse for 21 days, after which time all species were compared to controls and visually evaluated. Plant response ratings, summarized in Table E, are based on a scale of 0 to 100 where 0 is no effect and 100 is complete control. A dash (-) response means no test result.

[2] = test system: soybean; assay: Test E preemergence herbicide test; format: in vivo, Glycine max; set-up: key: 0 = no effect, 100 = complete control
Text: as §1

SMILES	Plant response rating, Ragweed ([1]; 16 g ai/ha)	Plant response rating, Ragweed ([1]; 31 g ai/ha)	Plant response rating, Ragweed ([1]; 62 g ai/ha)	Plant response rating, Ragweed ([1]; 125 g ai/ha)	Plant response rating, Ragweed ([1]; 250 g ai/ha)	Plant response rating, Soybean ([2]; 16 g ai/ha)	Plant response rating, Soybean ([2]; 31 g ai/ha)	Plant response rating, Soybean ([2]; 62 g ai/ha)	Plant response rating, Soybean ([2]; 125 g ai/ha)	Plant response rating, Soybean ([2]; 250 g ai/ha)
O=C1NCC(c2cccc(Br)c2)C1C(=O)Nc1ccccc1F (stereo not drawn) [Compound 66]	0	0	0	0	20	0	0	0	0	0
O=C1NCC(c2ccc(C(F)(F)F)cc2)C1C(=O)Nc1ccc(F)c(F)c1F (stereo not drawn) [Compound 232]	–	35	75	95	95	–	0	0	0	0
